These results are taken from ChEMBL document CHEMBL3714736, “Heterocyclic compounds for the inhibition of PASK” (2015).

Active and inactive are the calls of the source. No cut-off for these calls is given here.

Data set [1] deals with Rattus norvegicus. Description: Reduction in body weight in high fructose diet fed Sprague-Dawley rat with fast/re-feed at 30 mg/kg, po dosed once daily for 7 days. Type of data set: functional, organism-based.
Data set [2] has as its system Mus musculus. Description: Reduction in liver weight in high-fat diet fed C57B16 mouse with fast/re-feed at 100 mg/kg, po daily for 3 days. Type of data set: functional. Particulars: for inhibition in vivo at 100 mg/kg: 72 h.
The subject of data set [3] is Rattus norvegicus. Description: Increase in liver weight in high fructose diet fed Sprague-Dawley rat with fast/re-feed at 30 mg/kg, po dosed once daily for 7 days. It counts as ADME, organism-based. Particulars: in vivo, 168 h.
Data set [4] concerns Rattus norvegicus. The experiment in a line: Reduction in plasma glucose level in high fructose diet fed Sprague-Dawley rat with fast/re-feed at 30 mg/kg, po dosed once daily for 7 days by colorimetric assay. Type of data set: functional.
The target in data set [5] is T1, PAS domain-containing serine/threonine-protein kinase (Homo sapiens, UniProt Q96RG2). Description: Inhibition of N-terminal GST-tagged human recombinant PASK kinase domain (879 to 1323 residues) expressed in insect cells using MBP protein substrate incubated for 120 mins in presence of [33P]ATP by scintillation counting based radiochemical assay.
Data set [6] deals with Rattus norvegicus. Description: Reduction in plasma cholesterol level in high fructose diet fed Sprague-Dawley rat with fast/re-feed at 30 and 100 mg/kg, po dosed once daily for 7 days by colorimetric assay. Type of data set: functional, organism-based.
The subject of data set [7] is Mus musculus. The experiment in a line: Reduction in plasma insulin level in fasted fed C57B16 mouse at 30 mg/kg, po daily for 3 days by colorimetric assay. It counts as functional. Particulars: 72 h.
Data set [8] relates to Rattus norvegicus. The experiment in a line: Reduction in liver weight in high fructose diet fed Sprague-Dawley rat with fast/re-feed at 100 mg/kg, po dosed once daily for 7 days. Particulars: 168 h. It counts as functional.
Data set [9] has as its system Mus musculus. Description: Reduction in liver weight in high-fat diet fed C57B16 mouse with fast/re-feed at 30 to 100 mg/kg, po daily for 3 days. Type of data set: functional.
Data set [10] concerns Mus musculus. The experiment in a line: Reduction in plasma glucose level in fasted C57B16 mouse at 30 to 100 mg/kg, po daily for 3 days by colorimetric assay. Type of data set: functional, organism-based.
Data set [11] concerns Mus musculus. Description: Reduction in plasma glucose level in high-fat diet fed C57B16 mouse with fast/re-feed at 30 to 100 mg/kg, po daily for 3 days by colorimetric assay. Type of data set: functional, organism-based.
For data set [12], the system named is Rattus norvegicus. Description: Reduction in plasma triglyceride level in high fructose diet fed Sprague-Dawley rat with fast/re-feed at 30 and 100 mg/kg, po dosed once daily for 7 days by colorimetric assay. Type of data set: functional, organism-based.
Data set [13] relates to Mus musculus. The experiment in a line: Reduction in plasma insulin level in fasted fed C57B16 mouse at 100 mg/kg, po daily for 3 days by colorimetric assay. Type of data set: functional. Particulars: 72 h.
The subject of data set [14] is Rattus norvegicus. The experiment in a line: Reduction in liver weight in high fructose diet fed Sprague-Dawley rat with fast/re-feed at 30 and 100 mg/kg, po dosed once daily for 7 days. It counts as functional, organism-based.
The subject of data set [15] is Mus musculus. The experiment in a line: Reduction in plasma glucose level in high-fat diet fed C57B16 mouse with fast/re-feed at 100 mg/kg, po daily for 3 days by colorimetric assay. Particulars: 72 h. Type of data set: functional.
For data set [16], the system named is Mus musculus. The experiment in a line: Reduction in liver weight in high-fat diet fed C57B16 mouse with fast/re-feed at 30 mg/kg, po daily for 3 days. It counts as functional.
Data set [17] has as its system Mus musculus. Description: Reduction in plasma insulin level in high-fat diet fed C57B16 mouse with fast/re-feed at 30 to 100 mg/kg, po daily for 3 days by colorimetric assay. It counts as functional, organism-based.
Data set [18] concerns Rattus norvegicus. Description: Reduction in body weight in high fructose diet fed Sprague-Dawley rat with fast/re-feed at 30 and 100 mg/kg, po dosed once daily for 7 days. It counts as functional, organism-based.
Data set [19] has as its system Rattus norvegicus. Description: Reduction in plasma glucose level in high fructose diet fed Sprague-Dawley rat with fast/re-feed at 30 and 100 mg/kg, po dosed once daily for 7 days by colorimetric assay. It counts as functional, organism-based.
Data set [20] deals with Mus musculus. Description: Reduction in body weight in high-fat diet fed C57B16 mouse with fast/re-feed at 30 to 100 mg/kg, po daily for 3 days. Type of data set: functional, organism-based.
In data set [21] the target is T1, PAS domain-containing serine/threonine-protein kinase. Description: Inhibition of human recombinant PASK using Ulight-peptide substrate incubated for 2 hrs by TR-FRET assay.

T1 sequence (Q96RG2 whole entry, the tested form may be a part): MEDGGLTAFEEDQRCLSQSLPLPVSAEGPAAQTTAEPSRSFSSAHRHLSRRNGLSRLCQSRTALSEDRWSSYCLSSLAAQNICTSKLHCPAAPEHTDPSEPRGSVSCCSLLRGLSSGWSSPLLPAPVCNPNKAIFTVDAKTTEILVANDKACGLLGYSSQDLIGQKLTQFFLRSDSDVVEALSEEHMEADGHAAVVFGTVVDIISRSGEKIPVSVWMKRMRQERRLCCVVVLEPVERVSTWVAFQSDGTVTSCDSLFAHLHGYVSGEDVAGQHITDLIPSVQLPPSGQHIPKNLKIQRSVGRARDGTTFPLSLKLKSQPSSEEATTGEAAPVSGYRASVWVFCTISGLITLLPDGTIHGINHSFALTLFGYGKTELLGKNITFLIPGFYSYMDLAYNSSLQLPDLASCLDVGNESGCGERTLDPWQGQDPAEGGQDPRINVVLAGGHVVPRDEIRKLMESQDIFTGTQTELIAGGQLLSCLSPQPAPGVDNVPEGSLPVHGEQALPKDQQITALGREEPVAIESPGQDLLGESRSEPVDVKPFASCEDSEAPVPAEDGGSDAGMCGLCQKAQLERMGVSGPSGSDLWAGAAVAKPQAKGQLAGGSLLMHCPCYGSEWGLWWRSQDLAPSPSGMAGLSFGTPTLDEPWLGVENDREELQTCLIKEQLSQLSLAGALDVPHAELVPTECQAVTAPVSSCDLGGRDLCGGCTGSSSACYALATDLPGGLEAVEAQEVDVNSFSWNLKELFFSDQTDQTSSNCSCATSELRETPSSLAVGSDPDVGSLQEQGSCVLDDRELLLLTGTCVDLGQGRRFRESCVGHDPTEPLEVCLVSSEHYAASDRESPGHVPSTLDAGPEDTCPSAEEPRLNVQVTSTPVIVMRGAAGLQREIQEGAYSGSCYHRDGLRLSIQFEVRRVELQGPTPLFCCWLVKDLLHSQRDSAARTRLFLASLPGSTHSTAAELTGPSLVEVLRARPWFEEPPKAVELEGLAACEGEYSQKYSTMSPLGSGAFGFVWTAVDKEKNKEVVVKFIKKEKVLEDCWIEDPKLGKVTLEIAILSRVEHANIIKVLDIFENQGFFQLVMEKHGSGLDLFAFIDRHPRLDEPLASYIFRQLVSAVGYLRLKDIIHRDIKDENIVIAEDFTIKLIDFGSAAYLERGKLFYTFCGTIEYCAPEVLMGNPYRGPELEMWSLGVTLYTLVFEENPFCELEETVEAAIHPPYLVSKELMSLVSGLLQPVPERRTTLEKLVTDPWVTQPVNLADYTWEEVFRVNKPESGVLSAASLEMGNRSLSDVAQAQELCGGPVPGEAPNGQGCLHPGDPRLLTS

On to `CC(C)OC(=O)C1=CN(C(=O)c2ccc(F)c(F)c2)CC(C)(C)c2c1[nH]c1ccccc21` [TUROFEXORATE ISOPROPYL], for which, in [1], the outcome was inactive. In data set [2], this molecule registered an inhibition in vivo at 100 mg/kg of 7%. In data set [3], this molecule yielded an Activity of 15%. The inhibition result in data set [4] was “inactive”.

With `CN(C1CCN(c2nc3cc(C(=O)O)ccc3nc2-c2ccccc2)CC1)S(C)(=O)=O`, the half-inhibitory concentration (IC50) in data set [5] is at most 10 µM.

Consider `CC(C)N(C)c1nc2cc(C(=O)O)ccc2nc1-c1ccc(F)cc1`, for which the inhibition result in data set [6], in data set [14] and in data set [18] was “Active” throughout. Moreover, the inhibition in vivo at 30 mg/kg was at most 26% in data set [7] and 7% in data set [16] (72 h). Moreover, the inhibition in vivo at 100 mg/kg is 4% in data set [8], at most 26% in [13], 7% in data set [2] and at most 27% in [15]. The inhibition result in data set [9], in [10], in [11], in data set [12], in [2] and in data set [16] was “Dose-dependent effect” throughout. Besides, the inhibition result in data set [17], in [19] and in data set [20] was “Dose-dependent effect” throughout. Besides, in data set [9], the “inhibition (INH)” value was determined as 7%.

Consider `CC(C)N(C)c1nc2cc(C(=O)O)ccc2nc1-c1ccc2nccn2c1`, for which the half-inhibitory concentration (IC50) in [21] was at most 10 µM.

For `O=C(O)c1ccc2nc(-c3ccc4c(c3)OCO4)c(N3CCCc4ccccc43)nc2c1`, the IC50 in data set [21] is at most 10 µM.
